Reference: ChEMBL document CHEMBL1157448, “Antimycotic activity of 4-thioisosteres of flavonoids towards yeast and yeast-like microorganisms” (2008)

Tests used:
Format in all cases: functional
Saccharomyces cerevisiae [1] = experiment: Antimycotic activity against Saccharomyces cerevisiae DBVPG 6173 by agar diffusion disk bioassay
Papiliotrema laurentii [2] = experiment: Antimycotic activity against Cryptococcus laurentii DBVPG 4272 by agar diffusion disk bioassay
Candida albicans [3] = experiment: Antimycotic activity against Candida albicans DBVPG 6133 by agar diffusion disk bioassay
Papiliotrema laurentii [4] = experiment: Antimycotic activity against Cryptococcus laurentii DBVPG 6265 by agar diffusion disk bioassay
Saccharomyces cerevisiae [5] = experiment: Antimycotic activity against Saccharomyces cerevisiae DBVPG 6500 by agar diffusion disk bioassay
Prototheca wickerhamii = experiment: Antimycotic activity against Prototheca wickerhamii DBVPG 8879 by agar diffusion disk bioassay
Papiliotrema laurentii [6] = experiment: Antimycotic activity against Cryptococcus laurentii DBVPG 3883 by agar diffusion disk bioassay
Kluyveromyces marxianus = experiment: Antimycotic activity against Kluyveromyces marxianus DBVPG 6141 by agar diffusion disk bioassay
Candida albicans [7] = experiment: Antimycotic activity against Candida albicans DBVPG 6157 by agar diffusion disk bioassay
Clavispora lusitaniae = experiment: Antimycotic activity against Clavispora lusitaniae DBVPG 6142 by agar diffusion disk bioassay
Cryptococcus neoformans [8] = experiment: Antimycotic activity against Filobasidiella neoformans DBVPG 6981 by agar diffusion disk bioassay
Cryptococcus neoformans [9] = experiment: Antimycotic activity against Filobasidiella neoformans DBVPG 6225 by agar diffusion disk bioassay
Cryptococcus neoformans [10] = experiment: Antimycotic activity against Filobasidiella neoformans DBVPG 3428 by agar diffusion disk bioassay
Cryptococcus neoformans [11] = experiment: Antimycotic activity against Filobasidiella neoformans DBVPG 6010 by agar diffusion disk bioassay
Cryptococcus neoformans [12] = experiment: Antimycotic activity against Filobasidiella neoformans DBVPG 6982 by agar diffusion disk bioassay
Yarrowia lipolytica = experiment: Antimycotic activity against Yarrowia lipolytica DBVPG 6053 by agar diffusion disk bioassay
[Candida] zeylanoides = Antimycotic activity against Candida zeylanoides DBVPG 6163 by agar diffusion disk bioassay
Nakaseomyces glabratus = experiment: Antimycotic activity against Candida glabrata DBVPG 7212 by agar diffusion disk bioassay
[13] = tested on: Meyerozyma guilliermondii; experiment: Antimycotic activity against Pichia guilliermondii DBVPG 6140 by agar diffusion disk bioassay
Pichia kudriavzevii = experiment: Antimycotic activity against Issatchenkia orientalis DBVPG 6782 by agar diffusion disk bioassay
Candida tropicalis = experiment: Antimycotic activity against Candida tropicalis DBVPG 3982 by agar diffusion disk bioassay

Work on `COc1ccc(C2CSc3c(O)cc(O)cc3O2)cc1` (stereo not given) yielded an inhibition zone (IZ) (Saccharomyces cerevisiae [1]) of 15.1 mm, an inhibition zone (IZ) (Papiliotrema laurentii [2]) of 17.5 mm and an inhibition zone (IZ) (Candida albicans [3]) of 12.4 mm. The inhibition zone (IZ) (Papiliotrema laurentii [4]) was 13.3 mm and the inhibition zone (IZ) (Saccharomyces cerevisiae [5]) was 14.7 mm.

With `COc1cc(OC)c2c(c1)OC(c1ccc(O)c(O)c1)CS2` (stereo not given) the inhibition zone (IZ) (Prototheca wickerhamii) was 14.5 mm, the inhibition zone (IZ) (Saccharomyces cerevisiae [1]) was 14.6 mm and the inhibition zone (IZ) (Papiliotrema laurentii [2]) was 19.3 mm. For the same molecule, the inhibition zone (IZ) (Papiliotrema laurentii [6]) was 13.1 mm, the inhibition zone (IZ) (Kluyveromyces marxianus) was 14.9 mm and the inhibition zone (IZ) (Candida albicans [7]) was 12.1 mm. It also gave an inhibition zone (IZ) (Clavispora lusitaniae) of 13.9 mm, an inhibition zone (IZ) (Papiliotrema laurentii [4]) of 2.6 mm and an inhibition zone (IZ) (Saccharomyces cerevisiae [5]) of 14.9 mm.

Work on `COc1ccc(C2CSc3ccc(O)cc3O2)cc1` (stereo not given) yielded an inhibition zone (IZ) (Cryptococcus neoformans [8]) of 14.2 mm, an inhibition zone (IZ) (Papiliotrema laurentii [2]) of 26.4 mm and an inhibition zone (IZ) (Cryptococcus neoformans [9]) of 14.9 mm. The inhibition zone (IZ) (Cryptococcus neoformans [10]) was 14.6 mm, the inhibition zone (IZ) (Candida albicans [7]) was 14.1 mm and the inhibition zone (IZ) (Papiliotrema laurentii [4]) was 16.8 mm. The inhibition zone (IZ) (Cryptococcus neoformans [11]) was 18.1 mm, the inhibition zone (IZ) (Saccharomyces cerevisiae [5]) was 20.6 mm and the inhibition zone (IZ) (Cryptococcus neoformans [12]) was 12.9 mm. The inhibition zone (IZ) (Yarrowia lipolytica) was 15.6 mm.

For `COc1ccc(C2CSc3cc(O)ccc3O2)cc1` (stereo not given), the inhibition zone (IZ) (Papiliotrema laurentii [2]) was 22 mm and the inhibition zone (IZ) (Cryptococcus neoformans [11]) was 13.6 mm.

`Oc1ccc(C2CSc3ccc(O)cc3O2)cc1` (stereo not given) gave an inhibition zone (IZ) (Prototheca wickerhamii) of 17.8 mm, an inhibition zone (IZ) (Saccharomyces cerevisiae [1]) of 15.6 mm and an inhibition zone (IZ) (Cryptococcus neoformans [8]) of 15.6 mm. For the same molecule, the inhibition zone (IZ) (Papiliotrema laurentii [2]) was 28.5 mm, the inhibition zone (IZ) (Candida albicans [3]) was 16.2 mm and the inhibition zone (IZ) (Papiliotrema laurentii [6]) was 22.6 mm. It also gave an inhibition zone (IZ) ([Candida] zeylanoides) of 16.4 mm, an inhibition zone (IZ) (Cryptococcus neoformans [9]) of 17 mm and an inhibition zone (IZ) (Nakaseomyces glabratus) of 13.1 mm. The inhibition zone (IZ) [13] was 17.2 mm, the inhibition zone (IZ) (Cryptococcus neoformans [10]) was 17.4 mm and the inhibition zone (IZ) (Pichia kudriavzevii) was 14 mm. For the same molecule, the inhibition zone (IZ) (Candida albicans [7]) was 18.3 mm, the inhibition zone (IZ) (Clavispora lusitaniae) was 12.4 mm and the inhibition zone (IZ) (Papiliotrema laurentii [4]) was 17.8 mm. The inhibition zone (IZ) (Cryptococcus neoformans [11]) was 15.5 mm, the inhibition zone (IZ) (Saccharomyces cerevisiae [5]) was 19.2 mm and the inhibition zone (IZ) (Candida tropicalis) was 15.5 mm. For the same molecule, the inhibition zone (IZ) (Yarrowia lipolytica) was 16.5 mm.

For `Oc1ccc(C2CSc3cc(O)ccc3O2)cc1` (stereo not given), the inhibition zone (IZ) (Saccharomyces cerevisiae [1]) was 15.2 mm, the inhibition zone (IZ) (Papiliotrema laurentii [2]) was 16.4 mm and the inhibition zone (IZ) (Papiliotrema laurentii [6]) was 13.8 mm. The inhibition zone (IZ) (Cryptococcus neoformans [9]) was 11.2 mm, the inhibition zone (IZ) (Clavispora lusitaniae) was 12.9 mm and the inhibition zone (IZ) (Papiliotrema laurentii [4]) was 16.9 mm. It also gave an inhibition zone (IZ) (Cryptococcus neoformans [11]) of 15.5 mm and an inhibition zone (IZ) (Yarrowia lipolytica) of 14.3 mm.

`COc1ccc2c(c1)OC(c1ccc(O)cc1)CS2` (stereo not given) was tested, and the inhibition zone (IZ) (Prototheca wickerhamii) was 20.7 mm, the inhibition zone (IZ) (Saccharomyces cerevisiae [1]) was 24.1 mm and the inhibition zone (IZ) (Cryptococcus neoformans [8]) was 25.1 mm. For the same molecule, the inhibition zone (IZ) (Papiliotrema laurentii [2]) was 30.2 mm, the inhibition zone (IZ) (Candida albicans [3]) was 17.5 mm and the inhibition zone (IZ) (Papiliotrema laurentii [6]) was 18.2 mm. For the same molecule, the inhibition zone (IZ) ([Candida] zeylanoides) was 19.4 mm, the inhibition zone (IZ) (Cryptococcus neoformans [9]) was 18.4 mm and the inhibition zone (IZ) (Cryptococcus neoformans [10]) was 20 mm. For the same molecule, the inhibition zone (IZ) (Pichia kudriavzevii) was 17.6 mm, the inhibition zone (IZ) (Candida albicans [7]) was 16.5 mm and the inhibition zone (IZ) (Clavispora lusitaniae) was 15.3 mm. It also gave an inhibition zone (IZ) (Papiliotrema laurentii [4]) of 20.6 mm, an inhibition zone (IZ) (Cryptococcus neoformans [11]) of 35.1 mm and an inhibition zone (IZ) (Saccharomyces cerevisiae [5]) of 18.3 mm. The inhibition zone (IZ) (Candida tropicalis) was 20.2 mm and the inhibition zone (IZ) (Yarrowia lipolytica) was 15.8 mm.
